According to PMC5084695 (Biochemistry, 2016):

What was measured:
SbnA [1] = biological target: SbnA (Staphylococcus aureus, UniProt A6QDA0); assay: coupled inorganic phosphate release assay; format: biochemical
SbnA [2] = biological target: SbnA (Staphylococcus aureus, UniProt A6QDA0, S185G); assay: biochemical
SbnA [3] = biological target: SbnA (Staphylococcus aureus, UniProt A6QDA0, S185G/Y152F); assay: biochemical

N[C@@H](CS)C(=O)O [L-cysteine]
Ki (SbnA [1]): 0.091 ± 0.016 mM
Ki (SbnA [2]): 2.1 ± 0.5 mM
Kd (SbnA [3]): 8.9 ± 3.2 mM
